In assay [1] the test system is THP-1. As to the kind of experiment: Antiinflammatory activity in human PMA-activated THP1 cells assessed as inhibition of LPS-induced TNFalpha production at 1 uM incubated for 30 mins prior to LPS-challenge measured after 24 hrs by ELISA relative to control. The assay is classed as functional.
The test system of assay [2] is THP-1. The assay is described as follows: Antiinflammatory activity in human PMA-activated THP1 cells assessed as inhibition of LPS-induced IL6 production at 1 uM incubated for 30 mins prior to LPS-challenge measured after 24 hrs by ELISA relative to control. The assay is classed as functional. (In an ELISA, binding on a coated surface is turned into a signal by an enzyme label.)

For assay [3], the system named is Staphylococcus aureus. As to the kind of experiment: Antibacterial activity against Staphylococcus aureus MTCC 96 after 24 hrs by modified agar well diffusion method. The assay is classed as functional. As to conditions: MTCC 96, 24 h. Background: Agar diffusion results depend on both activity and mobility in agar.
Assay [4] relates to Bacillus subtilis. The assay is described as follows: Ratio of ciprofloxacin MIC to compound MIC for Bacillus subtilis MTCC 441. Type of assay: functional.
For assay [5], the system named is Candida albicans. As to the kind of experiment: Ratio of miconazole MIC to compound MIC for Candida albicans MTCC 227. The assay is classed as functional.
Assay [6] concerns Escherichia coli. The assay is described as follows: Antibacterial activity against Escherichia coli MTCC 443 after 24 hrs by modified agar well diffusion method. Type of assay: functional. The conditions noted are these: MTCC 443, 24 h.
Assay [7] concerns Fusarium solani. The assay is described as follows: Ratio of miconazole MIC to compound MIC for Fusarium solani MTCC 350. Type of assay: functional.
For assay [8], the system named is Salmonella typhimurium. The assay is described as follows: Ratio of ciprofloxacin MIC to compound MIC for Salmonella typhimurium MTCC 98. Type of assay: functional, Salmonella enterica subsp. enterica serovar Typhimurium.
The subject of assay [9] is THP-1. The assay is described as follows: Antiinflammatory activity in human PMA-activated THP1 cells assessed as inhibition of LPS-induced IL6 production at 10 uM incubated for 30 mins prior to LPS-challenge measured after 24 hrs by ELISA relative to control. The assay is classed as functional.
For assay [10], the system named is THP-1. The assay is described as follows: Antiinflammatory activity in human PMA-activated THP1 cells assessed as inhibition of LPS-induced TNFalpha production at 10 uM incubated for 30 mins prior to LPS-challenge measured after 24 hrs by ELISA relative to control. Type of assay: functional.
For assay [11], the system named is Aspergillus niger. The assay is described as follows: Ratio of miconazole MIC to compound MIC for Aspergillus niger MTCC 281. The assay is classed as functional.
Assay [12] relates to Escherichia coli. As to the kind of experiment: Ratio of ciprofloxacin MIC to compound MIC for Escherichia coli MTCC 443. Type of assay: functional.
In assay [13] the test system is Aspergillus flavus. The assay is described as follows: Antifungal activity against Aspergillus flavus MTCC 277 after 2 to 3 days by modified agar well diffusion method. The assay is classed as functional.
Assay [14] relates to Candida albicans. As to the kind of experiment: Antifungal activity against Candida albicans MTCC 227 after 2 to 3 days by modified agar well diffusion method. Type of assay: functional.
Assay [15] concerns Aspergillus flavus. The assay is described as follows: Ratio of miconazole MIC to compound MIC for Aspergillus flavus MTCC 277. The assay is classed as functional.
For assay [16], the system named is Salmonella typhimurium. As to the kind of experiment: Antibacterial activity against Salmonella typhimurium MTCC 98 after 24 hrs by modified agar well diffusion method. The assay is classed as functional, Salmonella enterica subsp. enterica serovar Typhimurium. As to conditions: Salmonella enterica, MTCC 98, 24 h.
For assay [17], the system named is Aspergillus niger. As to the kind of experiment: Antifungal activity against Aspergillus niger MTCC 281 after 2 to 3 days by modified agar well diffusion method. The assay is classed as functional.
Assay [18] relates to Staphylococcus aureus. The assay is described as follows: Ratio of ciprofloxacin MIC to compound MIC for Staphylococcus aureus MTCC 96. The assay is classed as functional.
In assay [19] the test system is Fusarium solani. The assay is described as follows: Antifungal activity against Fusarium solani MTCC 350 after 2 to 3 days by modified agar well diffusion method. Type of assay: functional.
The test system of assay [20] is Bacillus subtilis. The assay is described as follows: Antibacterial activity against Bacillus subtilis MTCC 441 after 24 hrs by modified agar well diffusion method. Type of assay: functional. The conditions noted are these: MTCC 441, 24 h.

The results in this text go back to ChEMBL document CHEMBL2150945, “Synthesis and biological evaluation of novel piperazine derivatives of flavone as potent anti-inflammatory and antimicrobial agent” (2012).

Usually inhibition stands for the change of the read-out against control, counted positive when it falls. Broadly, the MIC is the least concentration at which growth counts as inhibited. Read a low MIC as inhibition by little substance.

Converted amounts (≈) assume the structure as drawn.

Consider `C[C@@H]1C[C@H]2[C@@H]3CCC4=CC(=O)C=C[C@]4(C)[C@@]3(F)[C@@H](O)C[C@]2(C)[C@@]1(O)C(=O)CO` [DEXAMETHASONE], for which the inhibition at 1 µM was 71% with THP-1 [1] and 84% in the assay on THP-1 [2].

Take `COc1ccc2oc(NCCN3CCCC3)cc(=O)c2c1`: the MIC with Staphylococcus aureus [3] stood at 20 µg/mL (≈ 69.4 µM); with Escherichia coli [6] it was 15 µg/mL (≈ 52 µM); against Aspergillus flavus [13] it was 15 µg/mL (≈ 52 µM); against Candida albicans [14], 10 µg/mL (≈ 34.7 µM); with Salmonella typhimurium [16] it was 10 µg/mL (≈ 34.7 µM); in the assay on Aspergillus niger [17] it was 10 µg/mL (≈ 34.7 µM). Further, the MIC in the assay on Fusarium solani [19] and with Bacillus subtilis [20] was 10 µg/mL (≈ 34.7 µM) each time. The Ratio with Bacillus subtilis [4], with Candida albicans [5], in the assay with Fusarium solani [7], with Salmonella typhimurium [8], in the assay on Aspergillus niger [11] and in the assay on Escherichia coli [12] was 2 in each case. For the same compound, the Ratio in the assay on Aspergillus flavus [15] and in the assay with Staphylococcus aureus [18] was 2 in each case. The inhibition at 10 µM with THP-1 [9] worked out at 20%; in the assay on THP-1 [10], 5%.

With `COc1ccc2oc(N3CCN(c4ccccc4)CC3C#N)cc(=O)c2c1` (stereo not drawn), the MIC against Staphylococcus aureus [3] came out at 40 µg/mL (≈ 111 µM); with Escherichia coli [6], 45 µg/mL (≈ 125 µM); in the assay with Aspergillus flavus [13], 30 µg/mL (≈ 83 µM); against Candida albicans [14], 15 µg/mL (≈ 41.5 µM); with Salmonella typhimurium [16], 50 µg/mL (≈ 138 µM); with Aspergillus niger [17] it was 10 µg/mL (≈ 27.7 µM). The MIC against Fusarium solani [19] turned out to be 15 µg/mL (≈ 41.5 µM); with Bacillus subtilis [20], 30 µg/mL (≈ 83 µM). Besides, the Ratio in the assay on Bacillus subtilis [4], in the assay with Candida albicans [5], with Fusarium solani [7], in the assay with Salmonella typhimurium [8], in the assay with Aspergillus niger [11] and with Escherichia coli [12] was 2 in each case. The Ratio in the assay with Aspergillus flavus [15] and in the assay on Staphylococcus aureus [18] was 2 each time. Further, the inhibition at 10 µM with THP-1 [9] stood at 0%; in the assay on THP-1 [10], 10%.
